Measurements reported in US8163805B2, “Small molecule antagonists of Bcl-2 family proteins” (The Regents of the University of Michigan, priority 2001, dated 2012).
Like-named read-outs stand apart in the source and are kept apart here.

Assays:
PC-3 xenograft = conditions: Table 14; mice treated with gossypol and/or radiation
MDA-MB-231 cells = test: 5 day MTT cell growth assay, MDA-MB-231; assay type: cell-based, human; conditions: Homo sapiens, MDA-MB-231, 120 h, read-out: IC50, inhibition of MDA-MB-231 cell growth
Experimental: For example, the ability of gossypol compounds to inhibit MDA-MB-231 cell growth was tested in a 5 day MTT assay.
Cells were seeded in 24 or 96-well-plates and gossypol compounds were prepared at 2-10 fold dilutions in suitable medium. Inhibition of cell viability was determined by treating the cells with the gossypol compounds for 24 hrs. […] Inhibition of cell growth was determined by treating cells with gossypol compounds for 3-6 days. […] In some embodiments, MTT assays are used to determine cell inhibition.
Absorbance at 540 nm is used to measure the amount of formazan product.

[1] = test system: human breast cancer MDA-MB-231 (2LMP) xenograft
[2] = test system: MDA-MB-231 breast cancer cells; test: Annexin-V flow cytometry apoptosis, MDA-MB-231; assay type: cell-based, human; conditions: 24 hours
Experimental: Further tests using Annexin-V flow cytometry (FACS) assays were conducted to more quantitatively assess the ability of gossypol to induce apoptosis in MDA-MB-231 breast cancer cells. […] It was observed that 5.0 μM of gossypol induced 59% of the MDA-MB-231 cells to undergo apoptosis. While the present invention is not limited to a particular mechanism(s), it is contemplated that induction of apoptosis by gossypol is dose-dependent. At administrations of 10.0 and 20.0 μM, respectively, gossypol induced 74% and 96% of cancer cells, again respectively, to undergo apoptosis. MDA-MB-231 cells overexpress Bcl-2 and Bcl-XL.
In still further embodiments, the present invention used cell level detection of apoptotic events by flow cytometry. Cells that had undergone apoptotic events were detected by flow cytometry using a FACSCAN instrument (Becton Dickinson, Franklin Lakes, N.J.) with 488-nm laser line and analyzed using CELL QUEST software (Becton Dickinson, Franklin Lakes, N.J.). Phosphatidylserine exposed on the outside of the cells (one of the major characteristics of apoptosis) was determined by TACSTM Annexin V-FITC Kit (Trevigen, Gaithersburg, Md.). Annexin V-FITC fluorescence is detected in FL-1, and propidium iodide was detected in FL-2. (Hail Jr., and R. Lotan, R. Cancer Epidemiol. Biomarkers Prev., 9:1293-1301 (2000)).
Apoptosis was further detected and quantified using Annexin-V-fluorescence assays. […] Cells were collected and washed with PBS and stained with Annexin-V-Fluorescein and propidium iodide (PI) following standard protocols. Stained cells were analyzed with a flow cytometer (Becton Dickinson) using 488 nm excitation and a 515 nm bandpass filter for fluorenscein detection, and a >600 nm filter for PI detection.

[3] = test system: androgen-independent prostate PC-3 xenograft; test: PC-3 xenograft, (−)-gossypol and radiation (Example 20); assay type: in vivo, nude mice; conditions: Table 15; mice treated with gossypol and/or radiation
Experimental: In this experiment, 60 male 5 to 6 week old NCI athymic NCr-nu/nu nude mice were inoculated in each flank with an injection of about 5×10^6 PC-3 cells. The best 40 xenograft recipients were used. Tumors averaged about 70 mm^3. (−)-Gossypol compounds were first dissolved in ethanol and diluted with sterile water within 5 min to a final ethanol concentration of 10% prior to each administration. Irradiated test animals were restrained, placed under the X-ray head, and covered with lead shields to ensure that the tumor area was exposed to radiation. All oral administrations of (−)-gossypol and 10% alcohol were given by gavage.
The 40 best xenograft mice were divided into experimental groups as follows: radiation only (Groups 1 and 2), 2 Gy administered 5 times/week for 3 weeks, and daily oral administration of 10% alcohol (as vehicle control); radiation plus gossypol (Groups 3 and 4), 2 Gy administered 5 times a week for 3 weeks, and 10 mg/kg of (−)-gossypol administered orally 5 times/week for 4 weeks (8 mice each Group); gossypol only (Groups 5 and 6), 10 mg/kg (−)-gossypol administered orally every day for 4 weeks (8 mice each Group); vehicle control (Groups 7 and 8), daily oral administration of 10% alcohol (8 mice each Group as vehicle control); large tumor animals (combination of Groups 9-12), tumors allowed to reach 500 mm^3.
Other remaining tumors in this group appear pale yellowish and soft as compared with that in control group with hard solid and reddish appearance, indicating tumor blood supply was inhibited.

[4] = test system: human breast cancer xenograft MDA-MB-231; conditions: for inhibition of tumor growth: three weeks, day 29
Experimental: The potential of gossypol compounds as anticancer therapeutics was further evaluated in MDA-231 xenograft mice. […] A control group of five mice received no gossypol. In the treated mice, gossypol was administered daily in two different oral doses, a 30 and a 90 mg/kg dose, for three weeks.
A group of 10 mice received an orally administered daily dose of 30 mg/kg gossypol starting at day 7 and lasting for 4 weeks. […] Each experimental group had 10 animals.
As a positive control, TAXOTERE was used at a dose of 7.5 mg/kg. Control group mice received either no treatment or vehicle alone. To achieve statistic significance, a minimum of 10 mice per group was used in the combination regimes.
For all tests, mice were randomized and then injected in the fat pad with 1-5×10^6 cells prepared in serum-free medium. The animals were measured and weighed twice each week during the treatment period, followed by twice a week measurements for an additional 4-6 weeks. A gross visual necropsy of each animal was performed at death or terminal sacrifice.

[5] = test system: androgen independent prostate cancer PC-3 xenograft; test: PC-3 xenograft, (−)-gossypol alone and with docetaxel (Example 22); conditions: for weight loss: mice treated with gossypol
[6] = test system: A549 non-small cell lung carcinoma xenograft; test: A549 non-small cell lung carcinoma xenograft, (−)-gossypol with paclitaxel; conditions: Table 13; mice treated with gossypol and/or Paclitaxel
Bcl-XL [7] = biological target: T1, Bcl-XL (Homo sapiens, UniProt Q07817, DEL45-84); test: FP binding assay, Flu-Bak-BH3 16-mer tracer and His-fused Bcl-XL; conditions: FIG. 3, 6A, 6B
T1 construct: His-tag (N); made in house
T1 sequence (Q07817 with tags, fused parts or gaps DEL45-84 limits assumed): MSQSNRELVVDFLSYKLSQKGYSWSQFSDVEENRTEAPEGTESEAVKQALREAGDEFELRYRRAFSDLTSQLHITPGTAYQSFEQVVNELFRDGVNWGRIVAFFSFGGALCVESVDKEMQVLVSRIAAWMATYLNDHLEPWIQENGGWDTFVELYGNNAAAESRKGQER

[8] = test system: MCF-7 breast cancer cell line; test: Growth inhibition with TAXOL in fixed ratio, MCF-7; assay type: cell-based, human; conditions: combinations in a fixed ratio to TAXOL
Bcl-2 = biological target: T2, Bcl-2 (Homo sapiens, UniProt P10415); test: FP binding assay, Flu-Bad-25 peptide and GST-fusion Bcl-2 (FIG. 4, 45)
T2 construct: purchased Santa Cruz Biotechnology
T2 sequence (P10415 1-205 limits assumed): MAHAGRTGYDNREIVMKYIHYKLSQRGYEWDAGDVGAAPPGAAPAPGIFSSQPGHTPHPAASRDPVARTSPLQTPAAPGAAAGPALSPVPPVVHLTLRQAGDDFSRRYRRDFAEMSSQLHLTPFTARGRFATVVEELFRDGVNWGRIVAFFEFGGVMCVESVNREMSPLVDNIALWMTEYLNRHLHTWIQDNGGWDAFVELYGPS

Bcl-XL [9] = biological target: T1, Bcl-XL; test: 15N HSQC NMR binding to Bcl-XL
[10] = Elimination half-life in humans; assay type: in vivo
From the text: In some embodiments, the present invention contemplates that the longer residency of the (+)-gossypol enantiomer is potentially beneficial in certain prolonged gossypol treatments methods. Therefore, in some embodiments, the (+)-gossypol enantiomer is potentially more toxic to cells. […]

Bcl-XL [11] = biological target: T1, Bcl-XL; test: FP binding assay, Flu-Bid 21-residue peptide and Bcl-XL (FIG. 5, 46)
[12] = Table 8, docetaxel 7.5 mg/kg i.v. q week for 3 weeks, alone

## Cc1cc2c(C(C)C)c(O)c(O)c(C=O)c2c(O)c1-c1c(C)cc2c(C(C)C)c(O)c(O)c(C=O)c2c1O (racemic) [gossypol]
PC-3 xenograft
  weight loss: There was no significant weight loss
MDA-MB-231 cells
  IC50: 2000 nM
[1]; Table 8, mice treated with gossypol
  weight loss or death: There was no weight loss or death in
[2]; 5.0 μM
  cells induced to undergo apoptosis: 59%
[2]; 10.0 μM
  cells induced to undergo apoptosis: 74%
[2]; 20.0 μM
  cells induced to undergo apoptosis: 96%
[3]
  weight loss: There was no significant weight loss
[4]; 30 mg/kg oral daily
  inhibition of tumor growth: more than 70%
[4]; 90 mg/kg oral daily
  inhibition of tumor growth: more than 70%
[4]; 30 and 90 mg/kg oral daily
  weight loss or deaths: No weight loss or deaths
[5]; Table 9, PC-3 flank xenografts (~100 mm^3 at start), NCr-nu nude mouse, 15 mg/kg daily p.o., alone
  tumor growth inhibition on day 42: (15.6% on day 42). The (−)-gossypol
[5]; Table 9
  weight loss: There was no weight loss in mice
[5]; Table 10, PC-3 flank xenografts (~120 mm^3 at start), NCr-nu nude mouse, daily p.o. for 28 days, alone (racemic 15 mg/kg)
  tumor growth inhibition on day 56 compared to vehicle controls: (39% on day 56, p = 0.145) compared
[5]; Table 10
  weight loss: There was no weight loss in mice
[6]
  weight loss: There was no weight loss in mice

## CC1=C(C2=C(C)C(=O)c3c(c(C=O)c(O)c(O)c3C(C)C)C2=O)C(=O)c2c(C=O)c(O)c(O)c(C(C)C)c2C1=O (racemic) [gossypolone]
Bcl-XL [7]
  inhibition of binding between Bak BH3 peptide and Bcl-XL: competitive inhibition of Bak BH3 peptide binding to Bcl-XL protein

## Cc1cc2c(C(C)C)c(O)c(O)c(C=O)c2c(O)c1-c1c(C)cc2c(C(C)C)c(O)c(O)c(C=O)c2c1O [(+)-gossypol]
[8]
  IC50: 22.9 µM
Bcl-2; FIG. 4
  inhibition of binding between Bid BH3 peptide and Bcl-2: directly inhibit binding between Bid BH3 peptide and Bcl-2
Bcl-XL [9]
  binding to Bcl-XL by NMR: bind to the BH3 binding groove in Bcl-XL
[10]
  T1/2 of elimination relative to (−)-gossypol: 29 times
Bcl-XL [11]
  inhibition of binding between Bad BH3 peptide and Bcl-XL: directly inhibit binding between Bad BH3 peptide and Bcl-XL

## CCN=Cc1c(O)c(O)c(C(C)C)c2cc(C)c(-c3c(C)cc4c(C(C)C)c(O)c(O)c(C=NCC)c4c3O)c(O)c12 [(−)-gossypol ethyl Schiff's base]
Bcl-XL [7]
  inhibition of binding between Bak BH3 peptide and Bcl-XL: time-dependent inhibition

## CSCC[C@H](NC(=O)[C@H](CCCNC(=N)N)NC(=O)[C@H](CCCNC(=N)N)NC(=O)[C@H](CC(C)C)NC(=O)[C@H](CCC(=O)O)NC(=O)[C@H](CCCNC(=N)N)NC(=O)CNC(=O)[C@H](Cc1ccc(O)cc1)NC(=O)[C@H](CCCNC(=N)N)NC(=O)[C@H](CCC(N)=O)NC(=O)[C@H](C)NC(=O)[C@H](C)NC(=O)[C@H](Cc1c[nH]c2ccccc12)NC(=O)[C@H](CC(C)C)NC(=O)[C@H](CC(N)=O)NC(=O)c1ccc2c(c1)C1(OC2=O)c2ccc(O)cc2Oc2cc(O)ccc21)C(=O)N[C@@H](CO)C(=O)N[C@@H](CC(=O)O)C(=O)N[C@@H](CCC(=O)O)C(=O)N[C@@H](Cc1ccccc1)C(=O)N[C@H](C(=O)N[C@@H](CC(=O)O)C(=O)N[C@@H](CO)C(=O)N[C@@H](Cc1ccccc1)C(=O)N[C@@H](CCCCN)C(=O)N[C@@H](CCCCN)C(=O)O)C(C)C [Bad 25-mer BH3 peptide, reference compound]
Bcl-2; FIG. 26
  Kd: 6.9 nM

## CC(=O)O[C@@]12CO[C@@H]1C[C@H](O)[C@@]1(C)C(=O)[C@H](O)C3=C(C)[C@@H](OC(=O)[C@H](O)[C@@H](NC(=O)OC(C)(C)C)c4ccccc4)C[C@@](O)([C@@H](OC(=O)c4ccccc4)[C@H]21)C3(C)C [Docetaxel, docetaxel, reference compound]
[1]; [12]
  tumor growth inhibition: achieved about 70% tumor growth
  tumors grew back, time after treatment stopped: back 2-3 weeks after treatment
[1]; second round from day 45, tumors about 2,000 mm^3
  tumor growth in second round of treatment: continued to grow
